The subject of one test is K562 cells. The test can be described thus: Erythroid differentiation assay in K562 cells (hemin; hemoglobin accumulation, western blot). In kind it is cell-based, human. On the procedure: FIG. 1. ZAKα/P38 signaling pathway is activated in K562 after erythroid differentiation and its inhibition facilitates terminal erythroid differentiation. K562 cells were pre-treated with 0.1 μM nilotinib (Nil) (A, C, D), 1 μM anisomycin (B) and/or the indicated concentrations of the […] CX-5461 for 24 h, and then differentiated with 50 μM hemin for another 24 h. Hemoglobin accumulation (A, B, D) and NLRP1, phosphorylated P38, GATA1, ZAKα and ACTB (A-C) amounts were then evaluated by western blot. Immunoblots are representative of 3 independent experiments. #1, ACTB; #2, GATA1.
FIG. 2. The ZAKα/P38 signaling pathways is activated in K562 after erythroid differentiation. K562 cells were pre-treated with 0.1 μM nilotinib for 24 h and then differentiated with 50 μM hemin for the indicated times. The amounts of NLRP1, GATA1, phosphorylated P38, total ZAKα, phosphorylated ZAKα (Phos-tag) and ACTB were then evaluated by western blot.
(§1) FIG. 10. Imatinib and dasatinib promote erythropoiesis in human and zebrafish. (A) K562 cells were pretreated with the indicated concentrations of nilotinib, imatinib or dasatinib for 24 h and then differentiated with 50 μM hemin for 24 h. The amounts of NLRP1, GATA1, phosphorylated P38, total ZAKα and ACTB were then evaluated by western blot. (B) Zebrafish larvae were treated from 1 to 2 dpf with the indicated concentrations of nilotinib, imatinib or dasatinib. Representative images and number of neutrophils in larvae of 2 dpf treated by bath immersion with the indicated concentrations of imatinib and dasatinib. Each dot represents one individual and the mean±SEM for each group is also shown. P values were calculated by one-way ANOVA and Tukey's multiple range test. n.s., non-significant. ***P<0.001; ****P<0.0001.
(§2) FIG. 11. Ponatinib and bosutinib promote erythropoiesis in human and zebrafish. (A) K562 cells were pretreated with the indicated concentrations of nilotinib, ponatinib and bosutinib for 24 h and then differentiated with 50 μM hemin for the indicated times. The amounts of NLRP1, total ZAKα, GATA1, phosphorylated P38 and ACTB were then evaluated by western blot. (B) Number of neutrophils in larvae of 2 dpf treated by bath immersion with the indicated concentrations of ponatinib and bosutinib. Each dot represents one individual and the mean±SEM for each group is also shown. P values were calculated by one-way ANOVA and Tukey's multiple range test. n.s., non-significant, *P<0.05. **P<0.01. ***P<0.001.
K562 cells (CRL-3343; American Type Culture Collection) were maintained in RPMI culture medium supplemented with 10% fetal calf serum (FCS), 2 mM Glutamine, and 1% penicillin-streptomycin (Life Technologies). Cells were maintained and subcultured before confluence every 72 h. For differentiation, cells were treated with 50 μM hemin (#16009-13-5, Sigma-Aldrich) in the presence of 0.1% DMSO alone or with the caspase-1 inhibitor VX-765 (100 μM), the tyrosine kinase inhibitor nilotinib (0.1 μM), the RNA polymerase I inhibitor CX-5461 (200 nM, 1 μM and 10 μM) (all from MedChemExpress). Cells were collected at different time points (0, 24, 48 hours post-hemin addition), centrifuged, washed twice with PBS, and stored at −80° C. for further analysis.
Cells were lysed in 50 mM Tris-HCl (pH 7.5), 150 mM NaCl, 1% (w/v) NP-40 and fresh protease inhibitor (1/20, #P8340, Sigma-Aldrich). Protein quantification was performed with the BCA kit using BSA as standard. Cell lysates ([…]) in SDS sample buffer were subjected to electrophoresis on a polyacrylamide gel and transferred to nitrocellulose membranes. The membranes were incubated for 1 h with TTBS containing 5% (w/v) skimmed dried milk powder or 2% (w/v) BSA. The membranes were immunoblotted in the same buffer 16 h at 4° C. with the different primary antibodies diluted 1/1000. The blots were then washed with TTBS and incubated for 1 h at room temperature with secondary HRP-conjugated antibodies diluted 2,500-fold in 5% (w/v) skimmed milk in TTBS. […]
For orientation: A western blot detects proteins with antibodies after separation by electrophoresis.

The next test deals with HSPCs from DBA patients. As to the kind of experiment: Colony assay of PBMCs from DBA patients in methylcellulose medium. In kind it is cell-based, human. Conditions: 2 weeks, indicated concentrations (FIG. 13A). On the procedure:
FIG. 13. […] PBMCs from DBA patients were incubated for 2 weeks in human methylcellulose complete medium at 37° C. in the presence or absence of the indicated concentrations of nilotinib, imatinib, dasatinib, bosutinib and ponatinib, and the number of erythroid (A) and myeloid (B) colonies counted using standard morphological criteria. Each dot represents one patient and the means±SEM for each group is also shown.

For another test, the system named is zebrafish larvae. As to the kind of experiment: Chemical treatment of zebrafish larvae by bath immersion; counting of neutrophils and erythrocytes. In kind it is in vivo, Zebrafish (Danio rerio H.). On the procedure: FIG. 3. ZAKα regulates hematopoiesis in zebrafish through the Nlrp1 inflammasome. Number of neutrophils (B, D, H), erythrocytes (F) and macrophages (J), and caspase-1 activity (K) in 2 dpf larvae either treated from 1 to 2 dpf by bath immersion with 1 μM nilotinib and/or 100 μM anisomycin (A-D) or obtained by injecting one-cell stage embryos with standard or zaka crRNAs/Cas9 complexes (E-K). Representative images of neutrophils (A, C, G), erythrocytes (E) and macrophages (I) are also shown. Each dot represents one individual and the mean±SEM for each group is also shown. P values were calculated using one-way ANOVA and Tukey's multiple range test (B) or Student's t-test (D, F, H, J, K). n.s., non-significant; *P<0.05; **P<0.01; ***P<0.001.
FIG. 6. NLRP1 is activated by phosphorylation of the linker domain after activation of ZAKα and pharmacological inhibition of this signaling pathway promotes erythropoiesis in DBA. (A-D) Number of neutrophils (A-C), and caspase-1 activity (D) in 2 dpf larvae obtained by injection of one-cell stage embryos with human NLRP1 (wild type-WT, S107A and S107D) and treated from 1 to 2 dpf by bath immersion with 1 μM nilotinib (B-D). Representative images of neutrophils (arrows) are also shown in C. (E, F) BMMCs from a DBA patient were incubated for 2 weeks in human methylcellulose complete medium at 37° C. in the presence or absence of the indicated concentrations of nilotinib, and colonies were counted using standard morphological criteria. Each dot represents one individual and the mean±SEM for each group is also shown. P values were calculated by one-way ANOVA and Tukey's multiple range test. n.s., non-significant; *P<0.05; **P<0.01; ***P<0.001; ****P<0.0001.
as §1, §2
Zebrafish (Danio rerio H.) were obtained from the Zebrafish International Resource Center and mated, staged, raised and processed as described in The Zebarfish Book. The lines Tg(mpx:eGFP)^t114, Tg(lyz:DsRED2)^n250, Tg(mfap4:mCherry)^ump6, Tg(gata1a:DsRed)^sd2 Tg(runx1:GAL4)^utn6), Tg(UAS-E1B:NTR-mCherry) and casper (mitfa^w2/w2; mpv17^a9/a9) were previously described. spint1a^hi2217Tg/hi2217Tg was isolated from insertional mutagenesis screens. The experiments performed comply with the Guidelines of the European Union Council (Directive 2010/63/EU) and the Spanish RD 53/2013. The experiments and procedures performed were approved by the Bioethical Committees of the University of Murcia (approval number #669/2020). […]

Take `Cc1cnc(CNC(=O)c2c(=O)c3ccc(N4CCCN(C)CC4)nc3n3c2sc2ccccc23)cn1` [CX-5461]: the “erythroid differentiation in K562 cells” value in the test on K562 cells (CX-5461 at indicated concentrations 24 h, then 50 μM hemin 24 h, hemoglobin accumulation (FIG. 1D)) is “impairs erythroid differentiation”.
Turning to `Cc1ccc(NC(=O)c2ccc(CN3CCN(C)CC3)cc2)cc1Nc1nccc(-c2cccnc2)n1` [imatinib], the “defective erythropoiesis of HSPCs from DBA patients (erythroid colonies)” value in the test on HSPCs from DBA patients was “alleviated defective erythropoiesis”. In addition, the GATA1 protein amounts result in the test with K562 cells (K562 cells, indicated concentrations of TKI 24 h, then 50 μM hemin, western blot (FIG. 10A, 11A)) is “enhancing GATA1 amount”. The “erythroid differentiation of K562 cells” value in the test on K562 cells (indicated concentrations of TKI 24 h, then 50 μM hemin (FIG. 10A, 11A)) is given as “promoted erythroid differentiation of K562 cells by blocking the ZAKα/P38 axis”. Also, in the test on zebrafish larvae (bath immersion 1 to 2 dpf, imatinib 1 and 10 μM, dasatinib 0.1 and 1 μM (FIG. 10B)), the “number of erythrocytes in zebrafish larvae” value is reported as “enhanced the number of erythrocytes”.
On to `COc1ccc(C[C@H]2NC[C@H](O)[C@H]2OC(C)=O)cc1` [anisomycin], for which the “neutrophil number in Nlrp1- and Zaka-deficient larvae” value in the test on zebrafish larvae (larvae 2 dpf, anisomycin) is “failed to increase neutrophil number”. For the same compound, the neutrophil number result in the test on zebrafish larvae (wild type larvae 2 dpf, bath immersion 1 to 2 dpf, 1 μM nilotinib, 100 μM anisomycin) is “caused neutrophilia”.

For the origin of these results see US20260240846A1, “ZAK ALPHA KINASE (MAP3K20) INHIBITORS FOR USE IN THE TREATMENT OF ANEMIA” (UNIVERSIDAD DE MURCIA, priority 2023, published 2026).
